ChEMBL document CHEMBL1201862, “PubChem BioAssay data set” (2004)
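In this assay, cells in 96-well plates receive the compound at five concentrations for 48 hours. Endpoints are linearly interpolated between the surrounding concentrations. GI50 is the concentration that inhibits growth by half.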 The source made the active and inactive calls. Rule as the data show it: active = GI50 up to about 1.1 µM and inactive = higher.

Legend:
Experiment in all cases: growth of human tumour cells (NCI), 48 h
HT-29 = system: HT-29
Hs-578T = system: Hs-578T
A498 = system: A498
OVCAR-8 = system: OVCAR-8
MOLT-4 = system: MOLT-4
MDA-MB-435 = system: MDA-MB-435
HOP-92 = system: HOP-92
SNB-75 = system: SNB-75
CAKI-1 = system: CAKI-1
UACC-257 = system: UACC-257
LOX IMVI = system: LOX IMVI
NCI/ADR-RES = system: NCI/ADR-RES
SN12C = system: SN12C
A549 = system: A549
SK-OV-3 = system: SK-OV-3
HCT-116 = system: HCT-116
NCI-H23 = system: NCI-H23
IGROV-1 = system: IGROV-1
SR = system: SR
SF-295 = system: SF-295

In the case of `O=C1c2cccnc2-c2nccc3c2c1nc1cc(Br)ccc13`, the GI50 (HT-29) is reported as 0.989 µM (active), the GI50 (Hs-578T) is reported as 0.204 µM (active) and the GI50 (A498) is reported as 0.0196 µM (active). For the same molecule, the GI50 (OVCAR-8) was 0.0659 µM (active), the GI50 (MOLT-4) was 0.0955 µM (active) and the GI50 (MDA-MB-435) was 0.198 µM (active). The GI50 (HOP-92) was 0.438 µM (active), the GI50 (SNB-75) was 0.243 µM (active) and the GI50 (CAKI-1) was 0.218 µM (active). For the same molecule, the GI50 (UACC-257) was 0.226 µM (active), the GI50 (LOX IMVI) was 0.0533 µM (active) and the GI50 (NCI/ADR-RES) was 0.0375 µM (active). The GI50 (SN12C) was 0.101 µM (active), the GI50 (A549) was 0.122 µM (active) and the GI50 (SK-OV-3) was 0.239 µM (active). For the same molecule, the GI50 (HCT-116) was 0.025 µM (active), the GI50 (NCI-H23) was 0.0955 µM (active) and the GI50 (IGROV-1) was 0.14 µM (active). The GI50 (SR) was 0.0221 µM (active) and the GI50 (SF-295) was 0.227 µM (active).
With `Cc1nc(SCC(N)=O)c2sc(=S)n(-c3ccccc3)c2n1` the GI50 (HT-29) was > 10 µM (inactive), the GI50 (Hs-578T) was > 10 µM (inactive) and the GI50 (A498) was > 10 µM (inactive). The GI50 (OVCAR-8) was > 10 µM (inactive), the GI50 (MOLT-4) was > 10 µM (inactive) and the GI50 (MDA-MB-435) was > 10 µM (inactive). For the same molecule, the GI50 (HOP-92) was > 10 µM (inactive), the GI50 (SNB-75) was > 10 µM (inactive) and the GI50 (CAKI-1) was > 10 µM (inactive). The GI50 (UACC-257) was > 10 µM (inactive), the GI50 (LOX IMVI) was > 10 µM (inactive) and the GI50 (NCI/ADR-RES) was > 10 µM (inactive). For the same molecule, the GI50 (SN12C) was > 10 µM (inactive), the GI50 (A549) was > 10 µM (inactive) and the GI50 (SK-OV-3) was > 10 µM (inactive). The GI50 (HCT-116) was > 10 µM (inactive), the GI50 (NCI-H23) was > 10 µM (inactive) and the GI50 (IGROV-1) was > 10 µM (inactive). The GI50 (SR) was > 10 µM (inactive) and the GI50 (SF-295) was > 10 µM (inactive).
With `COc1cc(C(=O)O)c([N+](=O)[O-])c(OC)c1OC` the GI50 (HT-29) was > 100 µM (inactive), the GI50 (Hs-578T) was > 100 µM (inactive) and the GI50 (A498) was > 100 µM (inactive). The GI50 (OVCAR-8) was > 100 µM (inactive), the GI50 (MOLT-4) was > 100 µM (inactive) and the GI50 (MDA-MB-435) was > 100 µM (inactive). The GI50 (HOP-92) was > 100 µM (inactive), the GI50 (SNB-75) was > 100 µM (inactive) and the GI50 (CAKI-1) was > 100 µM (inactive). The GI50 (UACC-257) was > 100 µM (inactive), the GI50 (LOX IMVI) was > 100 µM (inactive) and the GI50 (NCI/ADR-RES) was > 100 µM (inactive). For the same molecule, the GI50 (SN12C) was > 100 µM (inactive), the GI50 (A549) was > 100 µM (inactive) and the GI50 (SK-OV-3) was > 100 µM (inactive). For the same molecule, the GI50 (HCT-116) was > 100 µM (inactive), the GI50 (NCI-H23) was > 100 µM (inactive) and the GI50 (IGROV-1) was > 100 µM (inactive). The GI50 (SR) was > 100 µM (inactive) and the GI50 (SF-295) was > 100 µM (inactive).
With `C=C(C)[C@@]1(O)CCCC[C@@H]1CC(Sc1ccccc1)Sc1ccccc1` the GI50 (HT-29) was 18.2 µM (inactive), the GI50 (Hs-578T) was 15.7 µM (inactive) and the GI50 (A498) was 29.9 µM (inactive). The GI50 (OVCAR-8) was 19.5 µM (inactive), the GI50 (MOLT-4) was 9.08 µM (inactive) and the GI50 (MDA-MB-435) was 16.2 µM (inactive). The GI50 (HOP-92) was 4.3 µM (inactive), the GI50 (SNB-75) was 16 µM (inactive) and the GI50 (CAKI-1) was 14.9 µM (inactive). The GI50 (UACC-257) was 20.2 µM (inactive), the GI50 (LOX IMVI) was 14.6 µM (inactive) and the GI50 (NCI/ADR-RES) was 16.3 µM (inactive). The GI50 (SN12C) was 16.4 µM (inactive), the GI50 (A549) was 13.9 µM (inactive) and the GI50 (SK-OV-3) was 19.6 µM (inactive). For the same molecule, the GI50 (HCT-116) was 12.5 µM (inactive), the GI50 (NCI-H23) was 14.2 µM (inactive) and the GI50 (IGROV-1) was 16.4 µM (inactive). The GI50 (SR) was 14.1 µM (inactive) and the GI50 (SF-295) was 16.6 µM (inactive).
For `Cc1cn(C2CC(N/C(=N/C#N)NCC3OC(n4cnc5c(N)ncnc54)CC3O)C(CO)O2)c(=O)[nH]c1=O` (stereo not given), the GI50 (HT-29) was > 100 µM (inactive), the GI50 (Hs-578T) was > 100 µM (inactive) and the GI50 (A498) was > 100 µM (inactive). The GI50 (OVCAR-8) was > 100 µM (inactive), the GI50 (MOLT-4) was > 100 µM (inactive) and the GI50 (MDA-MB-435) was > 100 µM (inactive). The GI50 (HOP-92) was > 100 µM (inactive), the GI50 (SNB-75) was > 100 µM (inactive) and the GI50 (CAKI-1) was > 100 µM (inactive). The GI50 (UACC-257) was > 100 µM (inactive), the GI50 (LOX IMVI) was > 100 µM (inactive) and the GI50 (NCI/ADR-RES) was > 100 µM (inactive). For the same molecule, the GI50 (SN12C) was > 100 µM (inactive), the GI50 (A549) was > 100 µM (inactive) and the GI50 (SK-OV-3) was > 100 µM (inactive). The GI50 (HCT-116) was > 100 µM (inactive), the GI50 (NCI-H23) was > 100 µM (inactive) and the GI50 (IGROV-1) was > 100 µM (inactive). The GI50 (SR) was > 100 µM (inactive) and the GI50 (SF-295) was > 100 µM (inactive).
`O=c1n(N=[S+]([O-])(c2ccccc2)c2ccccc2)c(=O)n2n1C1C=CC2CC1` was tested, and the GI50 (HT-29) was > 100 µM (inactive), the GI50 (Hs-578T) was > 100 µM (inactive) and the GI50 (A498) was > 100 µM (inactive). The GI50 (OVCAR-8) was > 100 µM (inactive), the GI50 (MOLT-4) was > 100 µM (inactive) and the GI50 (MDA-MB-435) was > 100 µM (inactive). For the same molecule, the GI50 (HOP-92) was > 100 µM (inactive), the GI50 (SNB-75) was > 100 µM (inactive) and the GI50 (CAKI-1) was > 100 µM (inactive). The GI50 (UACC-257) was > 100 µM (inactive), the GI50 (LOX IMVI) was > 100 µM (inactive) and the GI50 (NCI/ADR-RES) was > 100 µM (inactive). For the same molecule, the GI50 (SN12C) was > 100 µM (inactive), the GI50 (A549) was > 100 µM (inactive) and the GI50 (SK-OV-3) was > 100 µM (inactive). The GI50 (HCT-116) was > 100 µM (inactive), the GI50 (NCI-H23) was > 100 µM (inactive) and the GI50 (IGROV-1) was > 100 µM (inactive). The GI50 (SR) was > 100 µM (inactive) and the GI50 (SF-295) was > 100 µM (inactive).
For `CCCCSc1n/c(=C\c2ccc(N(C)C)cc2)c2nnnn12`, the GI50 (HT-29) was > 100 µM (inactive), the GI50 (Hs-578T) was > 100 µM (inactive) and the GI50 (A498) was > 100 µM (inactive). The GI50 (OVCAR-8) was > 100 µM (inactive), the GI50 (MOLT-4) was > 100 µM (inactive) and the GI50 (MDA-MB-435) was > 100 µM (inactive). For the same molecule, the GI50 (HOP-92) was > 100 µM (inactive), the GI50 (SNB-75) was > 100 µM (inactive) and the GI50 (CAKI-1) was > 100 µM (inactive). For the same molecule, the GI50 (UACC-257) was > 100 µM (inactive), the GI50 (LOX IMVI) was > 100 µM (inactive) and the GI50 (NCI/ADR-RES) was > 100 µM (inactive). For the same molecule, the GI50 (SN12C) was > 100 µM (inactive), the GI50 (A549) was > 100 µM (inactive) and the GI50 (SK-OV-3) was > 100 µM (inactive). For the same molecule, the GI50 (HCT-116) was > 100 µM (inactive), the GI50 (NCI-H23) was > 100 µM (inactive) and the GI50 (IGROV-1) was > 100 µM (inactive). The GI50 (SR) was > 100 µM (inactive) and the GI50 (SF-295) was > 100 µM (inactive).
